{"source": "patent US20230201147A1", "about": "“COCRYSTAL ANTIOXIDANTS OF PROTOCATECHUIC ACID WITH L-THEANINE FOR THE TREATMENT OF OXIDATIVE STRESS AND INFLAMMATORY CONDITIONS” (priority 2020, published 2023)", "origin": "cited, not measured here", "test_system": "thrombin-stimulated thromboxane formation", "conditions": "whole blood", "data": [{"smiles": "CCNC(=O)CC[C@H](N)C(=O)O", "note": "[L-theanine, N-ethyl-L-glutamine]", "values": [{"measurement": "inhibition of thrombin-stimulated thromboxane formation", "result": "potent inhibitor"}]}]}
